Experimental data published in patent US20230027361A1, “METTL3 MODULATORS” (priority 2019, published 2023).
Where two headings read alike, the source gives them in different places.

Tests used:
METTL1/WDR4 = METTL1/WDR4 (Homo sapiens, UniProt Q9UBP6); assay: METTL1 Assay (METTL1 biochemical assay); conditions: read-out: METTL1 IC50; METTL1 biochemical assay
Protocol: Assays were performed in a 25 μl-volume in 384-well V-bottom polypropylene microplates (Greiner Bio-One, cat. No. 781280) at ambient temperature. Optimized 1× assay buffer was 20 mM HEPES pH 7.5, 50 mM KCl, 250 μM MgCl2, 1 mM DTT, 0.01% Tween, 0.01% BSG, 0.004 U/μl RNAseOUT (cat. No. 10777019, ThermoFisher Scientific, Waltham, Mass.). For compound screening METTL1/WDR4 (final concentration, f.c.=6.25 nM) was added using a Multidrop Combi (ThermoFisher Scientific, Waltham, Mass.) and preincubated for 5 min. Reactions were started by adding 3′ biotinylated RNA ([…]-biotin) (f.c.=25 nM) and 3H-SAM (f.c.=60 nM) substrates. Reactions proceeded for 20 minutes and were quenched with excess non-radioactive SAM (f.c.=15 μM). The reactions were then transferred to streptavidin-coated flashplates and incubated for 2 hours at 25° C. Following two washing cycles with 0.1% Tween-20, the plates were sealed and read on a TopCount (PerkinElmer, Waltham, Mass.) plate-based scintillation counter. For determination of kinetic parameters, reaction times were optimized so that measurements were taken during the initial velocity phase of the reaction.

PRMT5-MEP50 = PRMT5-MEP50 (Homo sapiens, UniProt O14744); assay: PRMT5 Assay (PRMT5 biochemical assay)
Protocol: Assays were performed in a 25 μl-volume in 384-well V-bottom polypropylene microplates (Greiner Bio-One, cat. No. 781280) at ambient temperature. Optimized 1× assay buffer was 20 mM Tris-HCl pH 8.0, 1 mM DTT, […]. For compound screening PRMT5-MEP50 (final concentration, f.c.=2.5 nM) was added using a Multidrop Combi (ThermoFisher Scientific, Waltham, Mass.) and preincubated for 5 min. Reactions were started by adding 3′ biotinylated histone H4 peptide acetylated on serine 1 (Ac-[…]-Biotin) (f.c.=100 nM) and 3H-SAM (f.c.=250 nM) substrates. Reactions proceeded for 60 minutes and were quenched with excess non-radioactive SAM (f.c.=15 μM). The reactions were then transferred to streptavidin-coated flashplates and incubated for 2 hours at 25° C. Following two washing cycles with 0.1% Tween-20, the plates were sealed and read on a TopCount (PerkinElmer, Waltham, Mass.) plate-based scintillation counter. For determination of kinetic parameters, reaction times were optimized so that measurements were taken during the initial velocity phase of the reaction.

METTL3/METTL14 = METTL3/METTL14 (Homo sapiens, UniProt Q86U44); assay: METTL3-14 Standard Enzyme Assay (METTL3 biochemical assay)
Protocol: Assays were performed in a 25 μl-volume in 384-well V-bottom polypropylene microplates (Greiner Bio-One, cat. No. 781280) at ambient temperature. Optimized 1× assay buffer was 20 mM HEPES pH 7.5, 50 mM KCl, 250 μM MgCl2, 1 mM DTT, 0.01% Tween, 0.01% BSG, 0.004 U/μl RNAseOUT (cat. No. 10777019, ThermoFisher Scientific, Waltham, Mass.). For compound screening METTL3/METTL14 (final concentration, f.c.=2.5 nM) was added using a Multidrop Combi (ThermoFisher Scientific, Waltham, Mass.) and preincubated for 5 min. Reactions were started by adding 3′ biotinylated RNA ([…]-biotin) (f.c.=100 nM) and 3H-SAM (f.c.=100 nM) substrates. Reactions proceeded for 30 minutes and were quenched with excess non-radioactive SAM (f.c.=15 μM). The reactions were then transferred to streptavidin-coated flashplates and incubated for 2 hours at 25° C. Following two washing cycles with 0.1% Tween-20, the plates were sealed and read on a TopCount (PerkinElmer, Waltham, Mass.) plate-based scintillation counter. For determination of kinetic parameters, reaction times were optimized so that measurements were taken during the initial velocity phase of the reaction.

[1] = PRMT5 biochemical assay, read-out: PRMT5 IC50
[2] = METTL3 biochemical assay, read-out: METTL3 IC50

METTL1/WDR4, sequence (Q9UBP6 whole entry, species assumed): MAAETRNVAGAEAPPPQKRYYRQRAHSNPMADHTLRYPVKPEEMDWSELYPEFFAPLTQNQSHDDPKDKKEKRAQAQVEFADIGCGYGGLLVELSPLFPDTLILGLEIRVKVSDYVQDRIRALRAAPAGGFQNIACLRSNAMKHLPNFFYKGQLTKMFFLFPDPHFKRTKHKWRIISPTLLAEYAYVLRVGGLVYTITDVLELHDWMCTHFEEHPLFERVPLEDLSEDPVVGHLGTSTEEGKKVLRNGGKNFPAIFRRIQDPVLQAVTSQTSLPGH
METTL1/WDR4, sequence (P57081 whole entry partner, species assumed): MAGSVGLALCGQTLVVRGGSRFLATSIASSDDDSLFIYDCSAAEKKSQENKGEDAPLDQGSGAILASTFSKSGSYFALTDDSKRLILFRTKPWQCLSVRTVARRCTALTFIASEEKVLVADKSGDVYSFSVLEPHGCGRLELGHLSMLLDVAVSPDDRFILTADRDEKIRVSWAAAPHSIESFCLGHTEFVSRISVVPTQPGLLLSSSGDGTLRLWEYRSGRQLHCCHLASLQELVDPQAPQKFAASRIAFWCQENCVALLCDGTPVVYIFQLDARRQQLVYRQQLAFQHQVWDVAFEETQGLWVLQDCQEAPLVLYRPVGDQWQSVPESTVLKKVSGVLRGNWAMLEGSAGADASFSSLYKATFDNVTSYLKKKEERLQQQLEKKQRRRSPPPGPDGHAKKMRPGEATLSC
PRMT5-MEP50, sequence (O14744 whole entry): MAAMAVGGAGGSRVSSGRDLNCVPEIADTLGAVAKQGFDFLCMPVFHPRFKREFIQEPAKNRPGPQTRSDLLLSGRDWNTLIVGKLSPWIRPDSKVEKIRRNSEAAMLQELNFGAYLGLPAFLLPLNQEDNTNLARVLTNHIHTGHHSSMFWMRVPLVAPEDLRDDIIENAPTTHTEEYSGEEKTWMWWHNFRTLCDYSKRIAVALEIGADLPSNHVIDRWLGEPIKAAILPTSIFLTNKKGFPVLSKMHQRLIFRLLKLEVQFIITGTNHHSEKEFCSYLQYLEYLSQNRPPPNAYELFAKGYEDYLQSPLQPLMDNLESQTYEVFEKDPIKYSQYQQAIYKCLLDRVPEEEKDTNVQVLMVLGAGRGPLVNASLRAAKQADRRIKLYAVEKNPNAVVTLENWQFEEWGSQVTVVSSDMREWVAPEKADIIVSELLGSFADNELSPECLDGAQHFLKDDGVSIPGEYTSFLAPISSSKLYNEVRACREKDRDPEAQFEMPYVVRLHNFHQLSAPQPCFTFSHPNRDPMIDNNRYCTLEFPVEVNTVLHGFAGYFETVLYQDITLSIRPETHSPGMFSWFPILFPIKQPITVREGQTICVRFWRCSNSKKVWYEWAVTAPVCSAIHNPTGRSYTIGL
PRMT5-MEP50, sequence (Q9BQA1 whole entry partner): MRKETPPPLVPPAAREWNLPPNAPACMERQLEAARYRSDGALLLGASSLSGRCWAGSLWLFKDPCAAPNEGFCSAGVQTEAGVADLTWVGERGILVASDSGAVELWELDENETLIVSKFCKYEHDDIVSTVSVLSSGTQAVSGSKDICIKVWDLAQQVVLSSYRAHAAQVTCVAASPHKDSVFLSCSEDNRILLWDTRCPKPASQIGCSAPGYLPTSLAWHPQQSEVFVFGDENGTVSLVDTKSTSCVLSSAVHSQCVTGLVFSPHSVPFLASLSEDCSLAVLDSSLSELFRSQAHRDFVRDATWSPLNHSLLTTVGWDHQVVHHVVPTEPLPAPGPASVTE
METTL3/METTL14, sequence (Q86U44 whole entry, species assumed): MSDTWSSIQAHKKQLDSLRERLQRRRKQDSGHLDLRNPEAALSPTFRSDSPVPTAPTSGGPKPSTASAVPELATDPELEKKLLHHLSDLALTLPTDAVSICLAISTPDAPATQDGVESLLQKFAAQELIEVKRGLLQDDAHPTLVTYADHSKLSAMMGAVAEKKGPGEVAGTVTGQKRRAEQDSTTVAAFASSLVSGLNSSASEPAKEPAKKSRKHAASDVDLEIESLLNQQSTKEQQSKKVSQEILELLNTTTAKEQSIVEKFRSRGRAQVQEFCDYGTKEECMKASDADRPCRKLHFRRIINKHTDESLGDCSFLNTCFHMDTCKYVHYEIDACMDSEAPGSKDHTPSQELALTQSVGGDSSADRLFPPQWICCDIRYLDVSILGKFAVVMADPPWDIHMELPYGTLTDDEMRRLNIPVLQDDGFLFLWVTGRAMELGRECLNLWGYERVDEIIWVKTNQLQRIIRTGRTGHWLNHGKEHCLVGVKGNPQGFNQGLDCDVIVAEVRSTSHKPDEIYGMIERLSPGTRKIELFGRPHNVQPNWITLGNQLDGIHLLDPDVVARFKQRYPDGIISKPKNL
METTL3/METTL14, sequence (Q9HCE5 whole entry partner, species assumed): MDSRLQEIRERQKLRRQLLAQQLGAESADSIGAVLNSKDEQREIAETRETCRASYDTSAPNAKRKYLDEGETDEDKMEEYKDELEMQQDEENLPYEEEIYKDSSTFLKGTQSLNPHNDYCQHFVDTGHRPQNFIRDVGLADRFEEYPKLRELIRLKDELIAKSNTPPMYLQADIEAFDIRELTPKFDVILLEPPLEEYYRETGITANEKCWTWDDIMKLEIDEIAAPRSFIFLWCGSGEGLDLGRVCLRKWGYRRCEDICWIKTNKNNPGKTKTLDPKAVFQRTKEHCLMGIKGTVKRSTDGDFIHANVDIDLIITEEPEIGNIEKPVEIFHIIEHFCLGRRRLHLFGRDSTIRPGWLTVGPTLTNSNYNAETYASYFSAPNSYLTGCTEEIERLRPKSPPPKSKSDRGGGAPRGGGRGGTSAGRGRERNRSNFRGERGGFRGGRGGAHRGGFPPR

Row | Structure (SMILES) | IC50 (METTL1/WDR4) | IC50 (PRMT5-MEP50; [1]) | IC50 (METTL3/METTL14; [2]) | IC50 (METTL3/METTL14) | IC50 (PRMT5-MEP50)
1 | Cc1cn([C@@H]2C[C@H](CCc3ccc4ccc(N)nc4c3)[C@@H](O)[C@H]2O)c2ncnc(N)c12 [I-66] | > 1000 nM | < 10 nM | – | – | –
2 | CCCNc1ccc2ccc(CC[C@H]3C[C@@H](n4ccc5c(N)ncnc54)[C@H](O)[C@@H]3O)cc2n1 [I-120] | > 1000 nM | < 10 nM | – | – | –
3 | Nc1ncnc2c1ccn2[C@@H]1C[C@H](CCc2ccc3ccncc3c2)[C@@H](O)[C@H]1O [I-131] | > 1000 nM | 10 to 100 nM | – | – | –
4 | CCc1cc(N(C)C2CC2)c2ccc(OC[C@H]3O[C@@H](n4ccc5c(N)ncnc54)C[C@@H]3O)cc2n1 [I-161] | – | – | 10 to 100 nM | – | –
5 | CN(CCS(C)(=O)=O)c1ccc2ccc(OC[C@H]3O[C@@H](n4cc(-c5ccn(C)n5)c5c(N)ncnc54)[C@@H](F)[C@@H]3O)cc2n1 [I-166] | – | – | – | 100 to 1000 nM | > 1000 nM
6 | CCc1nc2cc(OC[C@H]3O[C@@H](n4cc(-c5ccn(C)n5)c5c(N)ncnc54)[C@@H](F)[C@@H]3O)ccc2o1 [I-168] | – | – | – | > 1000 nM | > 1000 nM
7 | CCc1nc2cc(OC[C@H]3O[C@@H](n4cc(-c5ccn(C)n5)c5c(N)ncnc54)[C@@H](F)[C@@H]3O)ccc2[nH]1 [I-172] | – | – | – | 100 to 1000 nM | > 1000 nM
8 | CNc1nc2cc(OC[C@H]3O[C@@H](n4cc(-c5ccn(C)n5)c5c(N)ncnc54)[C@@H](F)[C@@H]3O)ccc2o1 [I-173] | – | – | – | 100 to 1000 nM | > 1000 nM
9 | Cn1ccc(-c2cn([C@@H]3O[C@H](COc4ccc(C(=O)N5CCNCC5)c(N)c4)[C@@H](O)[C@@H]3F)c3ncnc(N)c23)n1 [I-174] | – | – | – | 100 to 1000 nM | > 1000 nM
10 | Nc1cc(OC[C@H]2O[C@@H](n3ccc4c(N)ncnc43)[C@@H](F)[C@@H]2O)ccc1C(=O)N1CCNCC1 [I-175] | – | > 1000 nM | > 1000 nM | – | –
11 | CNc1nc2cc(OC[C@H]3O[C@@H](n4cc(-c5ccn(C)n5)c5c(N)ncnc54)[C@@H](F)[C@@H]3O)ccc2s1 [I-176] | – | – | – | 100 to 1000 nM | > 1000 nM
12 | Cn1ccc(-c2cn([C@@H]3O[C@H](COc4ccc5sc(N6CCC6)nc5c4)[C@@H](O)[C@@H]3F)c3ncnc(N)c23)n1 [I-177] | – | – | – | 10 to 100 nM | > 1000 nM
13 | Cn1ccc(-c2cn([C@H]3C[C@H](O)[C@@H](COc4ccc5ccc(N6CC(N)C6)nc5c4)O3)c3ncnc(N)c23)n1 [I-182] | – | – | – | < 10 nM | > 1000 nM
14 | Nc1ncnc2c1ccn2[C@H]1C[C@H](O)[C@@H](COc2ccc3ccc(N4CC(N)C4)nc3c2)O1 [I-184] | – | 10 to 100 nM | 100 to 1000 nM | – | –
15 | Nc1ncnc2c1ccn2[C@@H]1O[C@H](COc2ccc3ccc(NC4CCC4)nc3c2)[C@@H](O)[C@@H]1F [I-185] | – | > 1000 nM | < 10 nM | – | –
16 | Cc1ccn(-c2cn([C@@H]3O[C@H](COc4ccc5ccc(N6CC(N)C6)nc5c4)[C@@H](O)[C@@H]3F)c3ncnc(N)c23)n1 [I-186] | – | – | – | 10 to 100 nM | 100 to 1000 nM
17 | Cc1ccn(-c2cn([C@@H]3O[C@H](COc4ccc5ccc(N6CC(O)C6)nc5c4)[C@@H](O)[C@@H]3F)c3ncnc(N)c23)n1 [I-187] | – | – | – | < 10 nM | > 1000 nM
18 | Nc1ncnc2c1ccn2[C@@H]1O[C@H](COc2ccc3ccc(N4CC(N)C4)nc3c2)[C@@H](O)[C@@H]1F [I-188] | – | > 1000 nM | 10 to 100 nM | – | –
19 | Cn1ccc(-c2cn([C@@H]3O[C@H](COc4ccc5ncc(N6CCC6)nc5c4)[C@@H](O)[C@@H]3F)c3ncnc(N)c23)n1 [I-189] | – | – | – | 10 to 100 nM | > 1000 nM
20 | Nc1ncnc2c1ccn2[C@@H]1O[C@H](CCC2CCNCC2)[C@@H](O)[C@@H]1F [I-192] | – | > 1000 nM | 100 to 1000 nM | – | –
21 | CNc1ccc2sc(CC[C@H]3O[C@@H](n4ccc5c(N)ncnc54)[C@@H](F)[C@@H]3O)cc2n1 [I-193] | – | 10 to 100 nM | 10 to 100 nM | – | –

Row | Structure (SMILES) | IC50 (METTL1/WDR4) | IC50 (PRMT5-MEP50; [1]) | IC50 (METTL3/METTL14; [2]) | IC50 (METTL3/METTL14) | IC50 (PRMT5-MEP50)
22 | Cn1ccc(-c2cn([C@H]3C[C@H](O)[C@@H](CCc4ccc5ccc(N6CCC6)nc5c4)O3)c3ncnc(N)c23)n1 [I-194] | – | – | – | < 10 nM | > 1000 nM
23 | CNc1nc2cc(OC[C@H]3O[C@@H](n4cc(-n5cccn5)c5c(N)ncnc54)[C@@H](F)[C@@H]3O)ccc2s1 [I-195] | – | – | – | 100 to 1000 nM | > 1000 nM
24 | Cn1ccc(-c2cn([C@@H]3O[C@H](COc4ccc5ccc(NC6CNC6)nc5c4)[C@@H](O)[C@@H]3F)c3ncnc(N)c23)n1 [I-196] | – | – | – | 100 to 1000 nM | > 1000 nM
25 | Cn1ccc(-c2cn([C@@H]3O[C@H](COc4ccc5ccc(N[C@H]6C[C@H](N)C6)nc5c4)[C@@H](O)[C@@H]3F)c3ncnc(N)c23)n1 [I-197] | – | – | – | 10 to 100 nM | 100 to 1000 nM
26 | Nc1ncnc2c1ccn2[C@H]1C[C@H](O)[C@@H](CCc2ccc3ccc(N4CCC4)nc3c2)O1 [I-198] | – | > 1000 nM | 10 to 100 nM | – | –
27 | Cn1ccc(-c2cn([C@@H]3O[C@H](COc4ccc5ccc(NC67CC(C6)C7)nc5c4)[C@@H](O)[C@@H]3F)c3ncnc(N)c23)n1 [I-200] | – | – | – | < 10 nM | 100 to 1000 nM
28 | Cn1ccc(-c2cn([C@@H]3O[C@H](COc4ccc5ccc(N[C@H]6C[C@@H](N)C6)nc5c4)[C@@H](O)[C@@H]3F)c3ncnc(N)c23)n1 [I-201] | – | – | – | 10 to 100 nM | 100 to 1000 nM
29 | CN(c1ccc2ccc(OC[C@H]3O[C@@H](n4cc(-c5ccn(C)n5)c5c(N)ncnc54)[C@@H](F)[C@@H]3O)cc2n1)C1CCC1 [I-202] | – | – | – | < 10 nM | > 1000 nM
30 | Cn1ccc(-c2cn([C@@H]3O[C@H](COc4ccc5ccc(C(=O)N6CCC6)nc5c4)[C@@H](O)[C@@H]3F)c3ncnc(N)c23)n1 [I-203] | – | – | – | > 1000 nM | > 1000 nM
31 | Nc1ncnc2c1ccn2[C@@H]1O[C@H](COc2ccc3ccc(N[C@H]4C[C@@H](N)C4)nc3c2)[C@@H](O)[C@@H]1F [I-204] | – | 100 to 1000 nM | 100 to 1000 nM | – | –
32 | CNc1nc2cc(OC[C@H]3O[C@@H](n4cc(-n5ccc(C)n5)c5c(N)ncnc54)C[C@@H]3O)ccc2cc1F [I-207] | – | – | – | > 1000 nM | > 1000 nM
33 | CNc1nc2cc(OC[C@H]3O[C@@H](n4cc(-c5ccn(C)n5)c5c(N)ncnc54)[C@@H](F)[C@@H]3O)ccc2[nH]1 [I-208] | – | – | – | < 10 nM | 100 to 1000 nM
34 | CCNc1ccc2ccc(CC[C@H]3C[C@@H](n4cc(-n5cccn5)c5c(N)ncnc54)C[C@@H]3O)cc2n1 [I-209] | – | – | – | < 10 nM | –
35 | Nc1ncnc2c1c(-n1cccn1)cn2[C@@H]1C[C@H](CCc2cc3nc(N4CCC4)ccc3cc2F)[C@@H](O)C1 [I-210] | – | – | – | < 10 nM | > 1000 nM
36 | CC1(C)COC(c2cn([C@@H]3O[C@H](COc4ccc5ccc(N6CCC6)nc5c4)[C@@H](O)[C@@H]3F)c3ncnc(N)c23)=N1 [I-213] | – | > 1000 nM | < 10 nM | – | –
37 | CN(C)Cc1cn([C@@H]2O[C@H](COc3ccc4ccc(N5CCC5)nc4c3)[C@@H](O)[C@@H]2F)c2ncnc(N)c12 [I-214] | – | > 1000 nM | < 10 nM | – | –
38 | Nc1ncnc2c1c(-c1cnccn1)cn2[C@@H]1O[C@H](COc2ccc3ccc(N4CCC4)nc3c2)[C@@H](O)[C@@H]1F [I-215] | – | – | – | < 10 nM | > 1000 nM
39 | CN(C)C(=O)c1cn([C@@H]2O[C@H](COc3ccc4ccc(N5CCC5)nc4c3)[C@@H](O)[C@@H]2F)c2ncnc(N)c12 [I-216] | – | – | – | 10 to 100 nM | 100 to 1000 nM
40 | Nc1ncnc2c1c([C@@H]1CCCO1)cn2[C@@H]1O[C@H](COc2ccc3ccc(N4CCC4)nc3c2)[C@@H](O)[C@@H]1F [I-224] | – | 100 to 1000 nM | < 10 nM | – | –
41 | Nc1ncnc2c1c(-n1cccn1)cn2C1CC(CCc2ccc3ccc(NC4CCC4)nc3c2)C(O)C1F (centres unmarked) [I-235] | – | – | – | 100 to 1000 nM | 10 to 100 nM
